Key:
[1] = Binding affinity against cathepsin B
[2] = Binding affinity against cathepsin L
[3] = target: Cysteine proteinase B (Leishmania mexicana, UniProt P36400); experiment: Binding affinity against Leishmania mexicana cysteine peptidase B (CPB)
[4] = target: Cruzipain (Trypanosoma cruzi, UniProt P25779); experiment: Binding affinity against cruzaine
[5] = target: T1, Cathepsin K (Homo sapiens, UniProt P43235); experiment: Binding affinity against human cathepsin K
T1 sequence (P43235 whole entry): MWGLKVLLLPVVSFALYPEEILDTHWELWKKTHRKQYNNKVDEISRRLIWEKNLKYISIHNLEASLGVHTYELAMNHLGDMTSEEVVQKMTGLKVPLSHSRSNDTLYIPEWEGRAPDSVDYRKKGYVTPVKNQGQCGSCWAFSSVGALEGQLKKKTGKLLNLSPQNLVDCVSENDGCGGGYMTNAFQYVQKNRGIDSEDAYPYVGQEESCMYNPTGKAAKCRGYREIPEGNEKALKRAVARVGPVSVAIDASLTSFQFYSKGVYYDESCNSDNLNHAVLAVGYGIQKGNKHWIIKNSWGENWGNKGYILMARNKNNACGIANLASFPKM

[6] = target: Cathepsin S (Homo sapiens, UniProt P25774); experiment: Binding affinity against cathepsin S
Chain of Cathepsin S (P25774 whole entry): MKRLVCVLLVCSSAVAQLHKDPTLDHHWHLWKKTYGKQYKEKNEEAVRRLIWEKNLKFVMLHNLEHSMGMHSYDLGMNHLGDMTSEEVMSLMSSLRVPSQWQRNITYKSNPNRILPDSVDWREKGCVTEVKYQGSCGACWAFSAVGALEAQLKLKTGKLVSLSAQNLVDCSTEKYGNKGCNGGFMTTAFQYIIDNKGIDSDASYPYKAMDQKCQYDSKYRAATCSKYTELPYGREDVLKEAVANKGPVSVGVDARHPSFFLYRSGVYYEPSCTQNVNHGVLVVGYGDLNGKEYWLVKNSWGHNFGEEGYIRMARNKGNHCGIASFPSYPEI

Chain of Cysteine proteinase B (P36400 whole entry): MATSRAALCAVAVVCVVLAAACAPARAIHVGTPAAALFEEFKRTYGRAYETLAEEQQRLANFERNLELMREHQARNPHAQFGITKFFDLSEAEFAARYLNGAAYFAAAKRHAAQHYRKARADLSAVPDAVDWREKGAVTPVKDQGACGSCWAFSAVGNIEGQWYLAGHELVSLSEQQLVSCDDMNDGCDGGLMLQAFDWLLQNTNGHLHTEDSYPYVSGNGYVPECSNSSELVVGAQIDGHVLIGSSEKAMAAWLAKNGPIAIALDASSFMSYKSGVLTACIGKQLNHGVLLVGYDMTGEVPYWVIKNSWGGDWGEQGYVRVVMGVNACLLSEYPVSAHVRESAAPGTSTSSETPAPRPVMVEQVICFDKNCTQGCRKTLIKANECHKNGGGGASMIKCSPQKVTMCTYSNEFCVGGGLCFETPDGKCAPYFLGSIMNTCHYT
Chain of Cruzipain (P25779 whole entry): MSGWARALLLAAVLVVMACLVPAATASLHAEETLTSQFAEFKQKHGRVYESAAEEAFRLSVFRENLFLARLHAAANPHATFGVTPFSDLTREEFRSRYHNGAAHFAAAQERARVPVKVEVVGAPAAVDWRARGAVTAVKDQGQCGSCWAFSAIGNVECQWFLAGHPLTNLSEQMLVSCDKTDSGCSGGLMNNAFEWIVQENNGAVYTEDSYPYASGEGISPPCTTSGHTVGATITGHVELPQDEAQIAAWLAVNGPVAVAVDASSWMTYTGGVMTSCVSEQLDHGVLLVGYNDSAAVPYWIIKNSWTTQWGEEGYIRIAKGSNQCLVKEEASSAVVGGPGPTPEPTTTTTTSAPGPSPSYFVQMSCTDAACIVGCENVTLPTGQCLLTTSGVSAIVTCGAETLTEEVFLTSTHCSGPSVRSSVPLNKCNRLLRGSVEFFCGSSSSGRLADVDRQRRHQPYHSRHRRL

SMILES | Ki [1] [nM] | Ki [2] [nM] | Ki [3] [nM] | Ki [4] [nM] | Ki [5] [nM] | Ki [6] [nM]
CC(C)C[C@H](NC(=O)c1ccc(C(C)(C)C)cc1)C(=O)N1NC[C@@H]2[C@H]1C(=O)CN2C(=O)c1ccccc1 | 119 | 370 | 49.5 | 93.2 | 3.5 | 434
CC(C)C[C@H](NC(=O)c1ccc(N(C)C)cc1)C(=O)N1CC[C@@H]2[C@H]1C(=O)CN2C(=O)c1ccccc1 | > 10000 | 1800 | 1170 | 600 | 5.5 | > 3000
CC(C)C[C@H](NC(=O)c1ccc(C(C)(C)C)cc1)C(=O)N1CC[C@@H]2[C@H]1C(=O)CN2C(=O)c1ccccc1 | > 10000 | > 3500 | 691 | 173 | 10.1 | > 4500
CC(C)C[C@H](NC(=O)c1ccc(N(C)C)cc1)C(=O)N1OC[C@@H]2[C@H]1C(=O)CN2C(=O)c1ccccc1 | > 6000 | > 4300 | 1000 | 2500 | 40.1 | > 3000

— ChEMBL document CHEMBL1141996, “cis-6-oxo-hexahydro-2-oxa-1,4-diazapentalene and cis-6-oxo-hexahydropyrrolo[3,2-c]pyrazole based scaffolds: design rationale, synthesis and cysteinyl proteinase inhibition” (Bioorg Med Chem Lett, 2005)
